Data taken from ChEMBL document CHEMBL1201862, “PubChem BioAssay data set” (2004).
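Protocol summary: plate cells (96-well), add compound at 5 concentrations, incubate 48 h, interpolate endpoints linearly. Abbreviation: GI50, concentration required for 50% inhibition of growth.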 Activity calls are given as the source filed them. Rule as the data show it: active = GI50 up to about 1.1 µM and inactive = higher.

Assays:
Assay in all cases: DTP human tumour cell line panel, 48 h
[1] = test system: SNB-19
[2] = test system: CAKI-1
[3] = test system: PC-3
[4] = test system: U-251
[5] = test system: COLO 205
[6] = test system: SK-MEL-2
[7] = test system: SK-MEL-28
[8] = test system: A549
[9] = test system: IGROV-1
[10] = test system: OVCAR-3
[11] = test system: KM12
[12] = test system: NCI-H226
[13] = test system: MDA-MB-435
[14] = test system: HCC 2998
[15] = test system: LOX IMVI
[16] = test system: HOP-92
[17] = test system: SK-OV-3
[18] = test system: HOP-62
[19] = test system: T47D
[20] = test system: M14

Row | Compound | GI50 [1] | GI50 [2] | GI50 [3] | GI50 [4] | GI50 [5] | GI50 [6] | GI50 [7] | GI50 [8] | GI50 [9] | GI50 [10] | GI50 [11] | GI50 [12] | GI50 [13] | GI50 [14] | GI50 [15] | GI50 [16] | GI50 [17] | GI50 [18] | GI50 [19] | GI50 [20]
1 | Cc1ccc(/N=N/c2ccc(O)c(CN(C)C)c2)cc1 | 36.6 µM (inactive) | 21.5 µM (inactive) | 19.4 µM (inactive) | 32.1 µM (inactive) | 17.7 µM (inactive) | 15.2 µM (inactive) | 20 µM (inactive) | 20.3 µM (inactive) | 15.1 µM (inactive) | 15.7 µM (inactive) | 15.8 µM (inactive) | 20.9 µM (inactive) | 17.3 µM (inactive) | 15.5 µM (inactive) | 14 µM (inactive) | 12.6 µM (inactive) | 32.7 µM (inactive) | 12.6 µM (inactive) | 13.7 µM (inactive) | 21.9 µM (inactive)
2 | CC1(C)OC[C@@H](/C=C\CCO[Si](c2ccccc2)(c2ccccc2)C(C)(C)C)N1C(=O)c1ccccc1 | 17.9 µM (inactive) | 9.4 µM (inactive) | 4.07 µM (inactive) | 12.7 µM (inactive) | 8.32 µM (inactive) | 5.24 µM (inactive) | 30.3 µM (inactive) | 3.59 µM (inactive) | 28.6 µM (inactive) | 7.5 µM (inactive) | 7.96 µM (inactive) | 7.94 µM (inactive) | 13.2 µM (inactive) | 7.46 µM (inactive) | 13.6 µM (inactive) | 14.4 µM (inactive) | 48.2 µM (inactive) | 25.4 µM (inactive) | 4.06 µM (inactive) | 7.08 µM (inactive)
3 | COc1ccc2c(c1)/C(=C\c1c(Cl)n(-c3ccccc3)c3ccccc13)C(=O)N2 | 3.67 µM (inactive) | 4.08 µM (inactive) | 7.23 µM (inactive) | 4.19 µM (inactive) | 3.61 µM (inactive) | 6.73 µM (inactive) | 9.31 µM (inactive) | 4.34 µM (inactive) | 4.12 µM (inactive) | 2.25 µM (inactive) | 3.18 µM (inactive) | 2.28 µM (inactive) | 1.64 µM (inactive) | 4.89 µM (inactive) | 6.44 µM (inactive) | 2.08 µM (inactive) | 7.36 µM (inactive) | 12.2 µM (inactive) | 5.94 µM (inactive) | 3.2 µM (inactive)
4 | c1ccc2cc(CNCCCCNCCCNCc3ccc4ccccc4c3)ccc2c1 | 1.43 µM (inactive) | 1.81 µM (inactive) | 1.63 µM (inactive) | 0.564 µM (active) | 0.277 µM (active) | 2.07 µM (inactive) | 1.69 µM (inactive) | 1.62 µM (inactive) | 0.585 µM (active) | 1.6 µM (inactive) | 0.403 µM (active) | 1.17 µM (inactive) | 1.45 µM (inactive) | 0.48 µM (active) | 0.202 µM (active) | 1.56 µM (inactive) | 1.76 µM (inactive) | 1.61 µM (inactive) | 2.77 µM (inactive) | 1.33 µM (inactive)
5 | O=C1C(N2CCOCC2)=C(Cl)C(=O)c2ncccc21 | > 10 µM (inactive) | > 10 µM (inactive) | > 9.62 µM (inactive) | 5.71 µM (inactive) | 2.24 µM (inactive) | 1.87 µM (inactive) | 2.2 µM (inactive) | > 10 µM (inactive) | > 8.53 µM (inactive) | 1.81 µM (inactive) | > 3.84 µM (inactive) | > 6.25 µM (inactive) | 1.73 µM (inactive) | > 6 µM (inactive) | 1.94 µM (inactive) | 1.5 µM (inactive) | > 10 µM (inactive) | > 10 µM (inactive) | 1.99 µM (inactive) | 2.37 µM (inactive)
6 | COc1ccc(C2CCc3c(cnc4nc(N)nc(N)c34)C2)cc1 (stereo not given) | 33.7 µM (inactive) | > 100 µM (inactive) | > 100 µM (inactive) | 9.29 µM (inactive) | > 100 µM (inactive) | 47.4 µM (inactive) | 96.4 µM (inactive) | 6.43 µM (inactive) | 1.09 µM (active) | 62.5 µM (inactive) | > 100 µM (inactive) | > 100 µM (inactive) | 4.53 µM (inactive) | 94.4 µM (inactive) | 0.968 µM (active) | 2.38 µM (inactive) | 18.1 µM (inactive) | 20.5 µM (inactive) | 31 µM (inactive) | 1.49 µM (inactive)
7 | Cc1nc(Nc2ccccc2Cl)sc1C(=O)CC(=O)C(=O)Nc1c(Cl)cccc1Cl | 63.8 µM (inactive) | 84.1 µM (inactive) | 27.3 µM (inactive) | 24.9 µM (inactive) | 18.6 µM (inactive) | 16.1 µM (inactive) | 26.2 µM (inactive) | 24.9 µM (inactive) | 15.8 µM (inactive) | 17.4 µM (inactive) | 25.4 µM (inactive) | 17.5 µM (inactive) | 22.9 µM (inactive) | 39.5 µM (inactive) | 27.4 µM (inactive) | 20.6 µM (inactive) | 29.1 µM (inactive) | 22.8 µM (inactive) | 22.8 µM (inactive) | 29.9 µM (inactive)
8 | CCO/N=C\c1ccc2oc(-c3ccccc3)cc(=O)c2c1 | 0.48 µM (active) | 0.427 µM (active) | 0.19 µM (active) | 0.628 µM (active) | 0.0506 µM (active) | 0.127 µM (active) | 28.8 µM (inactive) | 0.417 µM (active) | 0.24 µM (active) | 0.0778 µM (active) | 0.0522 µM (active) | 0.421 µM (active) | 0.0133 µM (active) | 0.31 µM (active) | 1.07 µM (active) | 3.26 µM (inactive) | 0.474 µM (active) | 0.46 µM (active) | 27.5 µM (inactive) | 0.172 µM (active)
9 | CC1(C)O[C@@H](CBr)C[C@H](C[C@H]2C[C@@H](O)C[C@@H](CCOCc3ccccc3)O2)O1 | 25.5 µM (inactive) | 27.8 µM (inactive) | 20.1 µM (inactive) | 31.8 µM (inactive) | 17 µM (inactive) | 16.4 µM (inactive) | 25.2 µM (inactive) | 23.9 µM (inactive) | 19.8 µM (inactive) | 19.4 µM (inactive) | 21.5 µM (inactive) | 17.5 µM (inactive) | 23.5 µM (inactive) | 24.6 µM (inactive) | 26.2 µM (inactive) | 25.5 µM (inactive) | 18.1 µM (inactive) | 20.1 µM (inactive) | 14.9 µM (inactive) | 23.5 µM (inactive)
10 | CN1CC(S(=O)(=O)c2ccccc2)CC(S(=O)(=O)c2ccccc2)C1c1ccccc1 (stereo not given) | 23.4 µM (inactive) | 10.8 µM (inactive) | 12.1 µM (inactive) | 12.1 µM (inactive) | 13.6 µM (inactive) | 4.47 µM (inactive) | 15.9 µM (inactive) | 32.7 µM (inactive) | 25.9 µM (inactive) | 12.3 µM (inactive) | 13.2 µM (inactive) | 21.2 µM (inactive) | 10.9 µM (inactive) | 15.9 µM (inactive) | 11.7 µM (inactive) | 18.2 µM (inactive) | 39.1 µM (inactive) | 20 µM (inactive) | 18.2 µM (inactive) | 16.8 µM (inactive)
11 | CN(C)CCCn1nc(N)c2nc3cc(Cl)ccc3nc21 | 65.3 µM (inactive) | > 79.6 µM (inactive) | 41.4 µM (inactive) | 44.8 µM (inactive) | 33 µM (inactive) | 28.3 µM (inactive) | 18.1 µM (inactive) | 37.1 µM (inactive) | 22.9 µM (inactive) | 99.8 µM (inactive) | 43.9 µM (inactive) | 45.2 µM (inactive) | 34 µM (inactive) | 35.7 µM (inactive) | 34.8 µM (inactive) | 25.3 µM (inactive) | > 100 µM (inactive) | 55.3 µM (inactive) | 92.3 µM (inactive) | 20.7 µM (inactive)
12 | CC(=O)OCC1OC(O[C@@H]2C[C@H]3C(C)(C)[C@H](OC(C)=O)CC[C@]3(C)[C@H]3CC[C@@]45C[C@H](O)C[C@H](C)[C@@H]4CC=C5[C@@]32C)C(O)C(O)C1O (stereo not given in full) | 4.02 µM (inactive) | 11.6 µM (inactive) | 3.03 µM (inactive) | 3.04 µM (inactive) | 1.82 µM (inactive) | 2.33 µM (inactive) | 7.19 µM (inactive) | 4.59 µM (inactive) | 2.71 µM (inactive) | 3.75 µM (inactive) | 2.38 µM (inactive) | 4.37 µM (inactive) | 3.27 µM (inactive) | 2.03 µM (inactive) | 1.98 µM (inactive) | 4.01 µM (inactive) | 9.12 µM (inactive) | 9.53 µM (inactive) | 3.43 µM (inactive) | 4.06 µM (inactive)
13 | CCN(CC)CCOc1ccc(N2Cc3cc(OC)c(OC)cc3C2=O)cc1 | > 100 µM (inactive) | > 100 µM (inactive) | > 100 µM (inactive) | > 100 µM (inactive) | > 100 µM (inactive) | > 100 µM (inactive) | > 100 µM (inactive) | > 100 µM (inactive) | > 100 µM (inactive) | > 100 µM (inactive) | > 100 µM (inactive) | > 100 µM (inactive) | > 100 µM (inactive) | > 100 µM (inactive) | > 100 µM (inactive) | > 100 µM (inactive) | > 100 µM (inactive) | > 100 µM (inactive) | > 100 µM (inactive) | > 100 µM (inactive)
14 | COc1ccc(C(SCC(N)C(=O)O)(c2ccc(OC)cc2)c2ccc(OC)cc2)cc1 (stereo not given) | 14.1 µM (inactive) | 17.3 µM (inactive) | 11.1 µM (inactive) | 14.8 µM (inactive) | 12.4 µM (inactive) | 12 µM (inactive) | 11.8 µM (inactive) | 17.1 µM (inactive) | 13.3 µM (inactive) | 12.2 µM (inactive) | 6.32 µM (inactive) | 13.2 µM (inactive) | 2.97 µM (inactive) | 12.9 µM (inactive) | 9.02 µM (inactive) | 14.7 µM (inactive) | 21.2 µM (inactive) | 13 µM (inactive) | 12.2 µM (inactive) | 10.2 µM (inactive)
